# Molecular target: MIF (Homo sapiens (Human), UniProt P14174)
# Test: MIF tautomerase assay using pHPP as substrate
# Type: biochemical
# Conditions: for Tautomerase Inhibition pIC50: cell-free, pHPP substrate 1.5 mM, MIF 3 nM, mean pIC50 of multiple test results; for IC50: read-out: Tautomerase Inhibition pIC50 (converted)
# Procedure: Tautomerase Assay Using pHPP as substrate
# This assay measured MIF's tautomerase activity in a cell-free system and was based on the determination of initial rates of the MIF-catalyzed conversion of the ketonic into the enolic tautomer of pHPP. This was achieved by spectrophotometric quantification of the complex between borate and the product of the reaction (enolic pHPP). The substrate was prepared by conversion of the enolic pHPP into its ketonic form. To achieve this, 0.5 M pHPP in methanol was diluted 10-fold with 50 mM sodium acetate buffer at pH 6.0, and then the suspension was shaken for 24 h at room temperature in darkness, and finally stored at 4° C. for not more than 1 week, with 5 min sonication being recommended before use.
# Assays were performed in small-volume clear-bottom black 96 or 384-well polystyrene plates (Greiner Bio-One). First, 2 μL of the enzyme solution containing 6 nM of MIF in DPBS, 0.025% w/v BSA, and 300 μM CHAPS was dispensed onto sample and negative control wells using Multidrop Combi with metallic tip cassettes (Thermo Fisher Scientific) previously treated with Sigmacote. Then, 2 μL of the same buffer without MIF was dispensed onto positive control wells. The reaction was started by addition of the following to all wells: 2 μL of substrate solution containing 3 mM ketonic pHPP in 200 mM boric acid, 25 mM sodium phosphate, 0.025% w/v BSA, and 300 μM CHAPS at pH 6.0. In order to remove bubbles, the plate was centrifuged in an Allegra 25R centrifuge (Beckman Coulter, Inc., Brea, CA) at 1000 rpm for 2 min at room temperature. Then, the plate was read in an EnVision. Final concentrations of enzyme and substrate were 3 nM and 1.5 mM, respectively. Initial rates were calculated for each well as the slope of the absorbance progress curve.
# The data mentioned below represents a mean pIC50 value of multiple test results. It is understood that the data illustrated below may have reasonable variation depending on the specific conditions and procedures used by the person conducting the testing.
# MIF, sequence (P14174 2-115): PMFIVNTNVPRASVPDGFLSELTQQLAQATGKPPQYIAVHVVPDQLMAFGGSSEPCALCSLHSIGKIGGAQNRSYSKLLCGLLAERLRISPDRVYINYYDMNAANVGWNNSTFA
Structure (SMILES),Tautomerase Inhibition pIC50,IC50 [nM]
"COc1cc(N2CC3CC(C2)O3)ccc1C(=O)Nc1nnc(-c2cccs2)o1 [Compound 33, 4-(6-oxa-3-azabicyclo[3.1.1]heptan-3-yl)-2-methoxy-N-(5-(thiophen-2-yl)-1,3,4-oxadiazol-2-yl)benzamide]",7.29,–
"COc1ccc(C(=O)Nc2nnc(-c3sccc3F)o2)c(OC)c1 [Compound 8, N-(5-(3-fluorothiophen-2-yl)-1,3,4-oxadiazol-2-yl)-2,4-dimethoxybenzamide]",6.54,–
"COc1ccc(C(=O)Nc2nnc(-c3ccc(O)cc3)o2)c(OC)c1 [Compound 4, N-(5-(4-hydroxyphenyl)-1,3,4-oxadiazol-2-yl)-2,4-dimethoxybenzamide]",5.58,–
"COC(=O)c1ccccc1C(=O)Nc1nnc(-c2cccs2)o1 [Compound 12, methyl 2-((5-(thiophen-2-yl)-1,3,4-oxadiazol-2-yl)carbamoyl)benzoate]",<5,–
"COc1cc(CCCC#N)ccc1C(=O)Nc1nnc(-c2cccs2)o1 [Compound 25, 4-(3-cyanopropyl)-2-methoxy-N-(5-(thiophen-2-yl)-1,3,4-oxadiazol-2-yl)benzamide]",7.68,–
"O=C(Cc1ccccc1)Nc1nnc(-c2cccs2)o1 [Compound 13, 2-phenyl-N-(5-(thiophen-2-yl)-1,3,4-oxadiazol-2-yl)acetamide]",<5,–
"COc1cc(N2CCCC2C(=O)O)ccc1C(=O)Nc1nnc(-c2cccs2)o1 (stereo not drawn) [Compound 30, (3-methoxy-4-((5-(thiophen-2-yl)-1,3,4-oxadiazol-2-yl)carbamoyl)phenyl)proline]",7.90,–
"COc1cc(O)ccc1C(=O)Nc1nnc(-c2cccs2)o1 [Compound 16, 4-hydroxy-2-methoxy-N-(5-(thiophen-2-yl)-1,3,4-oxadiazol-2-yl)benzamide]",7.09,–
"COc1cc([C@H]2CC[C@H](C(=O)O)CC2)ccc1C(=O)Nc1nnc(-c2cccs2)o1 [Compound 28, Trans-4-(3-methoxy-4-((5-(thiophen-2-yl)-1,3,4-oxadiazol-2-yl)carbamoyl)phenyl)cyclohexane-1-carboxylic acid]",–,38
"COc1cc(C2=CCC(C(=O)O)CC2)ccc1C(=O)Nc1nnc(-c2cccs2)o1 (stereo not drawn) [Compound 29, 3′-methoxy-4′-((5-(thiophen-2-yl)-1,3,4-oxadiazol-2-yl)carbamoyl)-2,3,4,5-tetrahydro-[1,1′-biphenyl]-4-carboxylic acid]",8.14,–
"COc1cc(OCCOCc2ccccc2)ccc1C(=O)Nc1nnc(-c2cccs2)o1 [Compound 18, 4-(2-(benzyloxy)ethoxy)-2-methoxy-N-(5-(thiophen-2-yl)-1,3,4-oxadiazol-2-yl)benzamide]",7.63,–
"COc1cc(N2CC3CC(C2)O3)ccc1C(=O)NCc1nnc(-c2cccs2)o1 [Compound 57, 4-(6-oxa-3-azabicyclo[3.1.1]heptan-3-yl)-2-methoxy-N-((5-(thiophen-2-yl)-1,3,4-oxadiazol-2-yl)methyl)benzamide]",6.29,–
"COc1cc(N2CCCC(C(=O)O)C2)ccc1C(=O)Nc1nnc(-c2cccs2)o1 (stereo not drawn) [Compound 31, 1-(3-methoxy-4-((5-(thiophen-2-yl)-1,3,4-oxadiazol-2-yl)carbamoyl)phenyl)piperidine-3-carboxylic Acid]",8.16,–
"COc1ccc(C(=O)Nc2ccc(-c3ccco3)nn2)c(OC)c1 [Compound 14, N-(6-(furan-2-yl)pyridazin-3-yl)-2,4-dimethoxybenzamide]",5.91,–
"CCOc1ccccc1C(=O)Nc1nnc(-c2cccs2)o1 [Compound 10, 2-ethoxy-N-(5-(thiophen-2-yl)-1,3,4-oxadiazol-2-yl)benzamide]",5.90,–
"COc1cc(N2CCOCC2)ccc1S(=O)(=O)Nc1nnc(-c2cncs2)o1 [Compound 35, 2-methoxy-4-morpholino-N-(5-(thiazol-5-yl)-1,3,4-oxadiazol-2-yl)benzenesulfonamide]",<5,–
"COc1ccc(C(=O)Nc2nnc(-c3sccc3C)o2)c(OC)c1 [Compound 7, 2,4-dimethoxy-N-(5-(3-methylthiophen-2-yl)-1,3,4-oxadiazol-2-yl)benzamide]",<5,–
"COc1cc([C@H]2CC[C@@H](C(=O)O)CC2)ccc1C(=O)Nc1nnc(-c2cccs2)o1 [Compound 27, Cis-4-(3-methoxy-4-((5-(thiophen-2-yl)-1,3,4-oxadiazol-2-yl)carbamoyl)phenyl)cyclohexane-1-carboxylic acid]",–,18.6
"COc1ccc(C(=O)Nc2nnc(-c3ccccc3)o2)c(OC)c1 [Compound 2, 2,4-dimethoxy-N-(5-phenyl-1,3,4-oxadiazol-2-yl)benzamide]",5.07,–
"COc1ccc(C(=O)Nc2nnc(-c3ccsc3)o2)c(OC)c1 [Compound 5, 2,4-dimethoxy-N-(5-(thiophen-3-yl)-1,3,4-oxadiazol-2-yl)benzamide]",7.73,–
"O=C(Nc1nnc(-c2ccco2)o1)[C@H]1CCN(Cc2ccccc2)C1 [Compound 3, (S)-1-benzyl-N-(5-(furan-2-yl)-1,3,4-oxadiazol-2-yl)pyrrolidine-3-carboxamide]",<5,–
"COc1cc(CCCc2nn[nH]n2)ccc1C(=O)Nc1nnc(-c2cccs2)o1 [Compound 26, 4-(3-(2H-tetrazol-5-yl)propyl)-2-methoxy-N-(5-(thiophen-2-yl)-1,3,4-oxadiazol-2-yl)benzamide]",7.95,–

# Second part, the compound after the results:
Tautomerase Inhibition pIC50,IC50 [nM],Structure (SMILES)
6.21,–,"COCCOc1ccc(C(=O)NCc2nnc(-c3cccs3)o2)c(OC)c1 [Compound 71, 2-methoxy-4-(2-methoxyethoxy)-N-((5-(thiophen-2-yl)-1,3,4-oxadiazol-2-yl)methyl)benzamide]"
3.10,–,"O=C(NCc1nnc(-c2cccs2)o1)c1ccccc1O [Compound 42, 2-hydroxy-N-((5-(thiophen-2-yl)-1,3,4-oxadiazol-2-yl)methyl)benzamide]"
<5,–,"COc1cc(N2CCOCC2)ccc1C(=O)NCc1nnc(-c2nccs2)o1 [Compound 62, 2-methoxy-4-morpholino-N-((5-(thiazol-2-yl)-1,3,4-oxadiazol-2-yl)methyl)benzamide]"
<5,–,"COc1cnccc1C(=O)NCc1nnc(-c2cccs2)o1 [Compound 47, 3-methoxy-N-((5-(thiophen-2-yl)-1,3,4-oxadiazol-2-yl)methyl)isonicotinamide]"
<5,–,"COc1ncccc1C(=O)NCc1nnc(-c2cccs2)o1 [Compound 48, 2-methoxy-N-((5-(thiophen-2-yl)-1,3,4-oxadiazol-2-yl)methyl)nicotinamide]"
4.79,–,"COc1cc(N2CCOCC2)ccc1C(=O)NCc1nnc(-c2ccc(Cl)s2)o1 [Compound 64, N-((5-(5-chlorothiophen-2-yl)-1,3,4-oxadiazol-2-yl)methyl)-2-methoxy-4-morpholinobenzamide]"
<5,–,"COc1cc(N2CCOCC2)ccc1C(=O)NCc1nnc(-c2ccns2)o1 [Compound 61, N-((5-(isothiazol-5-yl)-1,3,4-oxadiazol-2-yl)methyl)-2-methoxy-4-morpholinobenzamide]"
<5,–,"O=C(NCc1nnc(-c2cccs2)o1)c1c(F)cccc1F [Compound 45, 2,6-difluoro-N-((5-(thiophen-2-yl)-1,3,4-oxadiazol-2-yl)methyl)benzamide]"
<5,–,"COc1cc(N2CCOCC2)ccc1C(=O)NC1(c2nnc(-c3cccs3)o2)CC1 [Compound 66, 2-methoxy-4-morpholino-N-(1-(5-(thiophen-2-yl)-1,3,4-oxadiazol-2-yl)cyclopropyl)benzamide]"
<5,–,"CCN(Cc1nnc(-c2cccs2)o1)C(=O)c1ccc(N2CCOCC2)cc1OC [Compound 53, N-ethyl-2-methoxy-4-morpholino-N-((5-(thiophen-2-yl)-1,3,4-oxadiazol-2-yl)methyl)benzamide]"
1.77,–,"O=C(NCc1nnc(-c2cccs2)o1)c1ccccc1OC(F)(F)F [Compound 41, N-((5-(thiophen-2-yl)-1,3,4-oxadiazol-2-yl)methyl)-2-(trifluoromethoxy)benzamide]"
5.09,–,"O=C(NCc1nnc(-c2cccs2)o1)c1ccccc1Cl [Compound 43, 2-chloro-N-((5-(thiophen-2-yl)-1,3,4-oxadiazol-2-yl)methyl)benzamide]"
7.44,–,"COc1cc(N2CCOCC2)ccc1C(=O)Nc1nnc(-c2cccs2)o1 [Compound 37, 2-methoxy-4-morpholino-N-(5-(thiophen-2-yl)-1,3,4-oxadiazol-2-yl)benzamide]"
6.22,–,"COc1cc(N2CC(C)OC(C)C2)ccc1C(=O)NCc1nnc(-c2cccs2)o1 (stereo not drawn) [Compound 55, 4-(2,6-dimethylmorpholino)-2-methoxy-N-((5-(thiophen-2-yl)-1,3,4-oxadiazol-2-yl)methyl)benzamide]"

# From patent US11884682B2, “Compounds and their uses as MIF inhibitors” (NANJING IMMUNOPHAGE BIOTECH CO., LTD., priority 2020, dated 2024)
